{"source": "patent US20250100998A1", "about": "“PARP7 INHIBITORS” (Gilead Sciences, Inc., priority 2023, published 2025)"}
{"test_system": "STAT1 (phosphorylated at Tyr701) in NCI-H1373 cells", "assay": "Phospho-STAT1 (Tyr701) LANCE Ultra TR-FRET detection assay", "type": "cell-based", "details": "Homo sapiens, NCI-H1373, 48 h, induction of pSTAT1 in NCI-H1373 cells, 48 hours incubation; normalized to 10 uM positive control and DMSO; 4-parameter fit; read-out: NH1373 pSTAT1 EC50", "experimental": "Phospho-STAT1 (Tyr701 LANCE Ultra TR-FRET Detection Assay\nLANCE Ultra phospho-STAT1 (Tyr701) kits are designed for the detection of phosphorylated STAT1 in cell lysates using a simple, homogeneous LANCE Ultra sandwich assay (Cat. #TRF4028M). This assay is intended for assessing compound induction of endogenous levels of cellular STAT1 (phosphorylated at Tyr701) in NCI-H1373 cells. The NCI-H1373 cells are cultured in RPMI 1640 media containing 10% heat inactivated FBS, GlutaMAX, 1% Penicillin-Streptomycin. An Echo acoustic liquid handler is used to transfer 60 nanoliters of compound dilutions using the Echo Qualified, 384-well polypropylene microplate clear flat bottom source plates into a Greiner (#781080) cell culture microplate. NCI-H1373 cells are seeded into these compound-spotted culture plates at 30,000 cells/well in a 60 uL volume in growth media. The plates are incubated in a 5% CO2 humidified incubator at 37° C. for 48 hours. […] Briefly, […] of supplemented lysis buffer is added to each well and allowed to shake for 1 hour at 400 rpm. Next, 5 ul of remixed antibody solutions (vol/vol) prepared in detection buffer are added to each well and allowed to incubate at room temperature overnight. After spinning the plate down at 300 rpm for 1 min, the plate is read on an EnVision plate reader set up for Eu3+ Cryptate and fluorescence emission is measured at two different wavelengths (665 nm and 620 nm). The HTRF ratio is then calculated ([…]) for each well to determine the amount of pSTAT1 in the cell lysate, and the data is then normalized to 10 uM (S)-5-((1-(3-oxo-3-(4-(5-(trifluoromethyl)pyrimidin-2-yl)piperazin-1-yl)propoxy)propan-2-yl)amino)-4-(trifluoromethyl)pyridazin-3(2H)-one positive and DMSO negative controls. The values were then plotted as a function of compound concentration and a 4-parameter fit was applied to derive the EC50 values.", "units": {"EC50": "nM"}}
{"smiles": "CC(F)(F)c1cnc(-c2cc3ccn(C[C@@H]4CCC[C@H](Nc5cn[nH]c(=O)c5C(F)(F)F)C4)c(=O)c3c(F)c2F)nc1", "note": "[Example 20, 6-(5-(1,1-difluoroethyl)pyrimidin-2-yl)-7,8-difluoro-2-(((1R,3S)-3-((6-oxo-5-(trifluoromethyl)-1,6-dihydropyridazin-4-yl)amino)cyclohexyl)methyl)isoquinolin-1(2H)-one]", "EC50": 1.61}
{"smiles": "O=c1[nH]ncc(N[C@H]2CCC[C@@H](Cn3ccc4cc(-c5ncc(OC(F)F)cn5)c(F)c(F)c4c3=O)C2)c1C(F)(F)F", "note": "[Example 21, 6-(5-(difluoromethoxy)pyrimidin-2-yl)-7,8-difluoro-2-(((1R,3S)-3-((6-oxo-5-(trifluoromethyl)-1,6-dihydropyridazin-4-yl)amino)cyclohexyl)methyl)isoquinolin-1(2H)-one]", "EC50": 1.52}
{"smiles": "COc1nc(-c2cc3ccn(C[C@@H]4CCC[C@H](Nc5cn[nH]c(=O)c5C(F)(F)F)C4)c(=O)c3c(F)c2F)ncc1C#N", "note": "[Example 22, 2-(7,8-difluoro-1-oxo-2-(((1R,3S)-3-((6-oxo-5-(trifluoromethyl)-1,6-dihydropyridazin-4-yl)amino)cyclohexyl)methyl)-1,2-dihydroisoquinolin-6-yl)-4-methoxypyrimidine-5-carbonitrile]", "EC50": 2.42}
{"smiles": "O=c1[nH]ncc(N[C@H]2CCC[C@@H](Cn3cc(F)c4cc(-c5ncc(OC(F)(F)F)cn5)c(F)cc4c3=O)C2)c1C(F)(F)F", "note": "[Example 23, 4,7-difluoro-2-(((1R,3S)-3-((6-oxo-5-(trifluoromethyl)-1,6-dihydropyridazin-4-yl)amino)cyclohexyl)methyl)-6-(5-(trifluoromethoxy)pyrimidin-2-yl)isoquinolin-1(2H)-one]", "EC50": 9.13}
{"smiles": "CS(=N)(=O)c1cnc(-c2cc3ccn(C[C@@H]4CCC[C@H](Nc5cn[nH]c(=O)c5C(F)(F)F)C4)c(=O)c3c(F)c2F)nc1", "note": "(stereo partly drawn) [Example 24, 7,8-difluoro-6-(5-(methylsulfonimidoyl)pyrimidin-2-yl)-2-(((1R,3S)-3-((6-oxo-5-(trifluoromethyl)-1,6-dihydropyridazin-4-yl)amino)cyclohexyl)methyl)isoquinolin-1(2H)-one]", "EC50": 38.1}
{"smiles": "O=c1[nH]ncc(N[C@H]2CCC[C@@H](Cn3cnc4cc(-c5ncc(OC(F)F)cn5)c(F)cc4c3=O)C2)c1C(F)(F)F", "note": "[Example 25, 7-(5-(difluoromethoxy)pyrimidin-2-yl)-6-fluoro-3-(((1R,3S)-3-((6-oxo-5-(trifluoromethyl)-1,6-dihydropyridazin-4-yl)amino)cyclohexyl)methyl)quinazolin-4(3H)-one]", "EC50": 3.78}
{"smiles": "[2H]C([2H])([2H])Oc1cnc(-c2cc3ncn(C[C@@H]4CCC[C@H](Nc5cn[nH]c(=O)c5C(F)(F)F)C4)c(=O)c3cc2F)nc1", "note": "[Example 26, 6-fluoro-7-(5-(methoxy-d3)pyrimidin-2-yl)-3-(((1R,3S)-3-((6-oxo-5-(trifluoromethyl)-1,6-dihydropyridazin-4-yl)amino)cyclohexyl)methyl)quinazolin-4(3H)-one]", "EC50": 5.63}
{"smiles": "CC(O)(c1cnc(-c2cc3ccn(C[C@@H]4CCC[C@H](Nc5cn[nH]c(=O)c5C(F)(F)F)C4)c(=O)c3cc2F)nc1)C(F)F", "note": "(stereo partly drawn) [Example 27, 6-(5-(1,1-difluoro-2-hydroxypropan-2-yl)pyrimidin-2-yl)-7-fluoro-2-(((1R,3S)-3-((6-oxo-5-(trifluoromethyl)-1,6-dihydropyridazin-4-yl)amino)cyclohexyl)methyl)isoquinolin-1(2H)-one]", "EC50": 16.8}
{"smiles": "CC(O)(c1cnc(-c2cc3ccn(C[C@@H]4CCC[C@H](Nc5cn[nH]c(=O)c5C(F)(F)F)C4)c(=O)c3c(F)c2F)nc1)C(F)F", "note": "(stereo partly drawn) [Example 28, 6-(5-(1,1-difluoro-2-hydroxypropan-2-yl)pyrimidin-2-yl)-7,8-difluoro-2-(((1R,3S)-3-((6-oxo-5-(trifluoromethyl)-1,6-dihydropyridazin-4-yl)amino)cyclohexyl)methyl)isoquinolin-1(2H)-one]", "EC50": 5.84}
{"smiles": "N#Cc1cnc(-c2cc3ccn(C[C@@H]4CCC[C@H](Nc5cn[nH]c(=O)c5C(F)(F)F)C4)c(=O)c3c(F)c2F)nc1", "note": "[Example 29, 2-(7,8-difluoro-1-oxo-2-(((1R,3S)-3-((6-oxo-5-(trifluoromethyl)-1,6-dihydropyridazin-4-yl)amino)cyclohexyl)methyl)-1,2-dihydroisoquinolin-6-yl)pyrimidine-5-carbonitrile]", "EC50": 1.8}
{"smiles": "O=c1[nH]ncc(N[C@H]2CCC[C@@H](Cn3cc(F)c4cc(-c5nc6ccccn6n5)c(F)cc4c3=O)C2)c1C(F)(F)F", "note": "[Example 32, 6-([1,2,4]triazolo[1,5-a]pyridin-2-yl)-4,7-difluoro-2-(((1R,3S)-3-((6-oxo-5-(trifluoromethyl)-1,6-dihydropyridazin-4-yl)amino)cyclohexyl)methyl)isoquinolin-1(2H)-one]", "EC50": 1.53}
{"smiles": "O=c1[nH]ncc(N[C@H]2CCC[C@@H](Cn3cc(F)c4cc(-c5ncc(C(F)(F)F)cn5)c(F)c(F)c4c3=O)C2)c1C(F)(F)F", "note": "[Example 33, 4,7,8-trifluoro-2-(((1R,3S)-3-((6-oxo-5-(trifluoromethyl)-1,6-dihydropyridazin-4-yl)amino)cyclohexyl)methyl)-6-(5-(trifluoromethyl)pyrimidin-2-yl)isoquinolin-1(2H)-one]", "EC50": 1.51}
{"smiles": "O=c1[nH]ncc(N[C@H]2CCC[C@@H](Cn3cc(F)c4cc(-c5ncc(C(F)F)cn5)c(F)c(F)c4c3=O)C2)c1C(F)(F)F", "note": "[Example 34, 6-(5-(difluoromethyl)pyrimidin-2-yl)-4,7,8-trifluoro-2-(((1R,3S)-3-((6-oxo-5-(trifluoromethyl)-1,6-dihydropyridazin-4-yl)amino)cyclohexyl)methyl)isoquinolin-1(2H)-one]", "EC50": 0.952}
{"smiles": "COc1cnc(-c2cc3c(F)cn(C[C@@H]4CCC[C@H](Nc5cn[nH]c(=O)c5C(F)(F)F)C4)c(=O)c3c(F)c2F)nc1", "note": "[Example 35, 4,7,8-trifluoro-6-(5-methoxypyrimidin-2-yl)-2-(((1R,3S)-3-((6-oxo-5-(trifluoromethyl)-1,6-dihydropyridazin-4-yl)amino)cyclohexyl)methyl)isoquinolin-1(2H)-one]", "EC50": 1.45}
{"smiles": "O=c1[nH]ncc(N[C@H]2CCC[C@@H](Cn3cc(F)c4cc(-c5ncc(OCCO)cn5)c(F)c(F)c4c3=O)C2)c1C(F)(F)F", "note": "[Example 36, 4,7,8-trifluoro-6-(5-(2-hydroxyethoxy)pyrimidin-2-yl)-2-(((1R,3S)-3-((6-oxo-5-(trifluoromethyl)-1,6-dihydropyridazin-4-yl)amino)cyclohexyl)methyl)isoquinolin-1(2H)-one]", "EC50": 4.21}
{"smiles": "CC(C)(O)c1cnc(-c2cc3c(F)cn(C[C@@H]4CCC[C@H](Nc5cn[nH]c(=O)c5C(F)(F)F)C4)c(=O)c3c(F)c2F)nc1", "note": "[Example 37, 4,7,8-trifluoro-6-(5-(2-hydroxypropan-2-yl)pyrimidin-2-yl)-2-(((1R,3S)-3-((6-oxo-5-(trifluoromethyl)-1,6-dihydropyridazin-4-yl)amino)cyclohexyl)methyl)isoquinolin-1(2H)-one]", "EC50": 2.48}
{"smiles": "O=c1[nH]ncc(N[C@H]2CCC[C@@H](Cn3cc(F)c4cc(-c5ncc(OCCO)cn5)c(F)cc4c3=O)C2)c1C(F)(F)F", "note": "[Example 38]", "EC50": 12.5}
{"smiles": "CC(C)(O)c1cnc(-c2cc3c(F)cn(C[C@@H]4CCC[C@H](Nc5cn[nH]c(=O)c5C(F)(F)F)C4)c(=O)c3cc2F)nc1", "note": "[Example 39]", "EC50": 4.2}
{"smiles": "CS(=O)(=O)c1cnc(-c2cc3c(F)cn(C[C@@H]4CCC[C@H](Nc5cn[nH]c(=O)c5C(F)(F)F)C4)c(=O)c3cc2F)nc1", "note": "[Example 40, 4,7-difluoro-6-(5-methylsulfonylpyrimidin-2-yl)-2-[[(1R,3S)-3-[[6-oxo-5-(trifluoromethyl)-1H-pyridazin-4-yl]amino]cyclohexyl]methyl]isoquinolin-1-one]", "EC50": 16.3}
{"smiles": "CS(=O)(=O)c1cnc(-c2cc3c(F)cn(C[C@@H]4CCC[C@H](Nc5cn[nH]c(=O)c5C(F)(F)F)C4)c(=O)c3c(F)c2F)nc1", "note": "[Example 41]", "EC50": 3.25}
{"smiles": "CC(F)(F)c1cnc(-c2cc3c(F)cn(C[C@@H]4CCC[C@H](Nc5cn[nH]c(=O)c5C(F)(F)F)C4)c(=O)c3cc2F)nc1", "note": "[Example 42]", "EC50": 2.45}
{"smiles": "CC(F)(F)c1cnc(-c2cc3c(F)cn(C[C@@H]4CCC[C@H](Nc5cn[nH]c(=O)c5C(F)(F)F)C4)c(=O)c3c(F)c2F)nc1", "note": "[Example 43]", "EC50": 2.6}
{"smiles": "O=c1[nH]ncc(N[C@H]2CCC[C@@H](Cn3cc(F)c4cc(-c5ncc(OC(F)(F)F)cn5)c(F)c(F)c4c3=O)C2)c1C(F)(F)F", "note": "[Example 44, 4,7,8-trifluoro-2-[[(1R,3S)-3-[[6-oxo-5-(trifluoromethyl)-1H-pyridazin-4-yl]amino]cyclohexyl]methyl]-6-[5-(trifluoromethoxy)pyrimidin-2-yl]isoquinolin-1-one]", "EC50": 4.17}
